Reference: patent publication US20050137176A1, “Use of a steroidal or non-steroidal EcR receptor ligand in a cosmetic or dermatological preparation for maintaining cutaneous homeostasis” (L'OREAL, priority 2003, published 2005)

Key:
[1] = system: keratinocytes derived from a mammoplasty; assay: Measurement of cell multiplication of keratinocytes (number of cells per flask); type: cell-based, human
Method: The keratinocytes are derived from a mammoplasty. These keratinocytes were isolated and then cultured in KGM medium (Clonetics) supplemented with growth factor (EGF (Epidermal Growth Factor): 10 ng/ml, 0.4 μg/ml, insulin 5 μg/ml, BPE (Bovine Pituitary Extract) 4 ml/L). The cells are treated with ecdysterone for 8 hours to 48 hours. There is no EGF in the culture medium during the treatment with ecdysterone. […]

MRP8 and MRP14 = assay: Protein markers MRP8 and MRP14 by immunofluorescence on histological slices; type: cell-based; settings: reconstructed epidermides, conditions of Example 1
Method: Ecdysterone was added to the medium of reconstructed epidermides under the same conditions as those of Example 1.
The proteins MRP8 and MRP14 are proteins that are strongly expressed in reconstructed skin, in psoriatic skin and by keratinocytes that are hyperproliferative but that have, however, maintained the capacity to differentiate. The analysis of the protein markers MRP8 and MRP14 was performed by immunofluorescence on histological slices.

[2] = system: reconstructed epidermides; assay: Measurement of the thickness of the epidermis (histology, HES staining, image analysis); type: cell-based; settings: ecdysterone in culture medium of reconstructed epidermes, 7 days
Method: Reconstructed epidermides were prepared according to the technique of Asselineau et al., 1985 (Asselineau D, Bernard B A, Bailly C. & Darmon M: Epidermal morphogenesis and induction of 67 kD Keratin polypeptide by culture at the air liquid interface Exp Cell Res 159: 536-539).
From the first day of exposure to the air/liquid interface, the epidermides were cultured in the presence of ecdysterone in the culture medium (1 to 1000 μg/ml). The epidermes were cultured for 7 days. The treatment was renewed every 48 hours by changing the culture medium. After treatment for 7 days, the epidermes were harvested. The histological analysis is performed after staining with HES (hematoxylin eosin saffron).
Epidermal thickness measurements were performed on histological slices. To do this, 10 measurements are taken on a field. For each sample, 5 fields are counted. These measurements are performed using a Leica Q600S image analysis system with an ×10 objective lens. The mean thickness obtained for each sample corresponds to 50 measurements taken.

MRP8/MRP14 mRNA = assay: Expression of MRP8/MRP14 messenger RNA in reconstructed epidermides; type: cell-based; settings: treatment for 7 days
Description: (§1) Ecdysterone was applied to the medium of reconstructed epidermides under the same conditions as those of Example 1.
(§2) After treatment for 7 days, the epidermides were harvested.

psoriasin mRNA = assay: Expression of psoriasin messenger RNA in reconstructed epidermides; type: cell-based; settings: treatment for 7 days
Description: as §1, §2

[3] = system: normal human keratinocytes; assay: Cell cycle analysis (DNA content by flow cytometry); type: cell-based; settings: as a function of the amount of ecdysterone in the keratinocyte culture medium
Method: The cell cycle analysis consists in studying the DNA content of a cell population by flow cytometry. These studies were performed on normal human keratinocytes cultured as a monolayer in a defined medium (KGM-Clonetics).
The keratinocytes are derived from a mammoplasty. These keratinocytes were isolated and then cultured in KGM medium supplemented with growth factors (EGF: 10 ng/ml, 0.4 μg/ml, insulin 5 μg/ml, BPE (Bovine Pituitary Extract) 4 mL).
The cells are treated with ecdysterone for 8 hours to 48 hours. There is no EGF in the culture medium during the treatment with ecdysterone.
Ecdysterone was tested at the following concentrations: 1 μg/ml, 0.1 μg/ml and 0.01 μg/ml.
The protocol followed for the cell cycle analysis in flow cytometry is described in the following publication: Staiano-Coico L., Higgins P. J., Darzynkiewicz Z. et al; 1986 Human keratinocyte culture. Identification and stagind of epidermal cell subpopulations. J. Clin. Invest. 77, 396-404. The analysis was performed using a Facs Calibur 3C Trieur flow cytometer from the company Becton-Dickinson.

**Q.** How did the No of cells/flask ([1]; 0.001 μg/ml, 16 hours, second series) turn out when `CC(C)(O)CC[C@@H](O)[C@](C)(O)[C@H]1CC[C@@]2(O)C3=CC(=O)[C@@H]4C[C@@H](O)[C@@H](O)C[C@]4(C)[C@H]3CC[C@]12C` [Ecdysterone, (2b, 3b, 5b,22R)-2,3,14,20,22,25-hexahydroxycholest-7-en-6-one] was run?
**A.** The No of cells/flask was 3.6 × 10^5 cells/flask.

**Q.** What about the No of cells/flask ([1]; 0.001 μg/ml, 24 hours, second series) of the same compound?
**A.** The No of cells/flask was 3.6 × 10^5 cells/flask.

**Q.** And the No of cells/flask ([1]; 0.001 μg/ml, 48 hours, second series)?
**A.** Its No of cells/flask is 1.6e+06 cells/flask.

**Q.** What about the No of cells/flask ([1]; 0.01 μg/ml, 16 hours, first series) of the same compound?
**A.** Its No of cells/flask is 0.8 × 10^6 cells/flask.

**Q.** What about the No of cells/flask ([1]; 0.01 μg/ml, 16 hours, second series) of the same compound?
**A.** The No of cells/flask was 2.5 × 10^5 cells/flask.

**Q.** What about the No of cells/flask ([1]; 0.01 μg/ml, 24 hours, first series) of the same compound?
**A.** The No of cells/flask was 1.0 × 10^6 cells/flask.

**Q.** And the No of cells/flask ([1]; 0.01 μg/ml, 24 hours, second series)?
**A.** The No of cells/flask was 5.7 × 10^5 cells/flask.

**Q.** What about the No of cells/flask ([1]; 0.01 μg/ml, 48 hours, second series) of the same compound?
**A.** Its No of cells/flask is 1.6 × 10^6 cells/flask.

**Q.** What about the No of cells/flask ([1]; 0.1 μg/ml, 8 hours, first series) of the same compound?
**A.** The No of cells/flask was 0.8 × 10^6 cells/flask.

**Q.** And the No of cells/flask ([1]; 0.1 μg/ml, 16 hours, first series)?
**A.** The No of cells/flask was 1.0 × 10^6 cells/flask.

**Q.** What about the No of cells/flask ([1]; 0.1 μg/ml, 16 hours, second series) of the same compound?
**A.** Its No of cells/flask is 3.6 × 10^5 cells/flask.

**Q.** And the No of cells/flask ([1]; 0.1 μg/ml, 24 hours, first series)?
**A.** Its No of cells/flask is 1.1 × 10^6 cells/flask.

**Q.** And the No of cells/flask ([1]; 0.1 μg/ml, 24 hours, second series)?
**A.** The No of cells/flask was 5.2 × 10^5 cells/flask.

**Q.** What about the No of cells/flask ([1]; 0.1 μg/ml, 48 hours, second series) of the same compound?
**A.** Its No of cells/flask is 1.5 × 10^6 cells/flask.

**Q.** What about the No of cells/flask ([1]; 1 μg/ml, 8 hours, first series) of the same compound?
**A.** The No of cells/flask was 0.7 × 10^6 cells/flask.

**Q.** What about the No of cells/flask ([1]; 1 μg/ml, 16 hours, first series) of the same compound?
**A.** Its No of cells/flask is 0.5 × 10^6 cells/flask.

**Q.** What about the No of cells/flask ([1]; 1 μg/ml, 24 hours, first series) of the same compound?
**A.** Its No of cells/flask is 1.1 × 10^6 cells/flask.

**Q.** And the “Number of cells relative to the control cells” value ([1]; after treatment for 48 hours)?
**A.** Its value is “no significant increase in the number of cells”.

**Q.** What about the “Expression of the proteins MRP8 and MRP14 on histological slices” value (MRP8 and MRP14) of the same compound?
**A.** Its value is “restricts the expression of MRP8 and MRP14 to the upper layers of the epidermis”.

**Q.** And the “Parakeratosis or reduction in the thickness of the horny layer” value [2]?
**A.** The value was “not accompanied by parakeratosis”.

**Q.** What about the “Thickness of the epidermis at the level of the live layers” value [2] of the same compound?
**A.** Its value is “increase in the thickness of the epidermis at the level of the live layers”.

**Q.** What about the “Reduction of the expression of MRP8/MRP14 mRNA (factor)” value (MRP8/MRP14 mRNA) of the same compound?
**A.** Its value is 1.7.

**Q.** And the “Reduction of the expression of psoriasin mRNA (factor)” value (psoriasin mRNA)?
**A.** Its value is 3.5.

**Q.** And the “Phases of the cell cycle (cell population between G0/G1 and G2/M)” value [3]?
**A.** The value was “change in the cell population between the phases G0/G1 and G2/M”.
